Article PMC3070202 (Biochemistry, 2010)

What was measured:
[1] = target: T1, human pancreas-specific protein disulfide isomerase (PDIp) (Homo sapiens, UniProt Q13087, Q265L); assay: [3H]E2 saturation radioligand binding
T1 sequence (Q13087 153-366 Q265L limits assumed): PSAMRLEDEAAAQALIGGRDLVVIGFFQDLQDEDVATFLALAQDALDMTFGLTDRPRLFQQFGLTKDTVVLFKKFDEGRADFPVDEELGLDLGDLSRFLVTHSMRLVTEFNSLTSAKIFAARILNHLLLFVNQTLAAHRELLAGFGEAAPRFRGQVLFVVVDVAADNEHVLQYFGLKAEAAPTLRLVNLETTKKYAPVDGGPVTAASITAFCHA

[2] = target: T2, human pancreas-specific protein disulfide isomerase (PDIp) (Homo sapiens, UniProt Q13087); assay: [3H]E2 saturation radioligand binding with Scatchard plot
T2 sequence (Q13087 22-525): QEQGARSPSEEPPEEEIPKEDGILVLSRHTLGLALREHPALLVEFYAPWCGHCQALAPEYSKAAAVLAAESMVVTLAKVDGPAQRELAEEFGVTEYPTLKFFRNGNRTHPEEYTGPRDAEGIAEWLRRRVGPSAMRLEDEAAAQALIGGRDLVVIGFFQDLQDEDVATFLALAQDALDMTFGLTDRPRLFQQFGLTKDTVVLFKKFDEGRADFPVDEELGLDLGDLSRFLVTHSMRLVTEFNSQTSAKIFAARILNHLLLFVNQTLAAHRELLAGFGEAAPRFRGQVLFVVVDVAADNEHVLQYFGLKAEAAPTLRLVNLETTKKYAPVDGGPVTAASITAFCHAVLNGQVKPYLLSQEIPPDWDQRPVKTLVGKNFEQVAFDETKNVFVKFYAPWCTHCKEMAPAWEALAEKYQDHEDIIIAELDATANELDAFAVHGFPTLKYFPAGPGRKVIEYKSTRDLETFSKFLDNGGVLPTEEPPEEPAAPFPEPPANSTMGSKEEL

[3] = target: T2, human pancreas-specific protein disulfide isomerase (PDIp); assay: competition with [3H]E2 radioligand binding at […]

| SMILES | Kd [1] | Kd [2] | competition with [3H]E2 radioligand binding at 10 μM [3] |
| --- | --- | --- | --- |
| C[C@]12CC[C@@H]3c4ccc(O)cc4CC[C@H]3[C@@H]1CC[C@@H]2O [E2, Estradiol] | 185 ± 8 nM | ~170 nM | – |
| C[C@]12CC[C@@H]3c4ccc(O)cc4CC[C@H]3[C@@H]1C[C@@H](O)[C@@H]2O [E3] | – | – | could efficiently compete with [^3H]E2 for binding to the b-b′ fragment or the full-length PDIp |
